Source: DBAASP
Converted amounts (≈) assume the structure as drawn. Values belong to the molecule of their own block, whether it stands above or below them.

Assays:
Assay in all cases: ≥ marks a high value that may be exact or a test limit, other limits are often not marked, values filed in µg/mL are converted to µM
[1] = system: Bacillus subtilis
[2] = system: Pseudomonas aeruginosa
[3] = system: Candida albicans F7-39/IDE99
[4] = system: Escherichia coli B
[5] = system: Staphylococcus aureus
[6] = system: Raoultella terrigena
[7] = system: Enterococcus faecalis
[8] = system: Acinetobacter baumannii
[9] = system: Enterococcus gallinarum
[10] = system: Pseudomonas aeruginosa ATCC 27853
[11] = system: Enterobacter cloacae HNTCC 53001
[12] = system: Escherichia coli ATCC 25922
[13] = system: Proteus mirabilis ATCC 25933
[14] = system: Klebsiella pneumoniae KK3 9904
[15] = system: Staphylococcus aureus NCTC 8325
[16] = system: Staphylococcus epidermidis RP62A
[17] = system: Candida albicans ATCC 90028
[18] = system: Enterococcus faecalis ATCC 29212
[19] = system: Aggregatibacter actinomycetemcomitans ATCC 29522
[20] = system: Candida albicans ATCC 18804
[21] = system: Staphylococcus aureus ATCC 25923
[22] = system: Lactobacillus acidophilus NCTC 1723
[23] = system: Candida albicans NCTC 3179
[24] = system: Streptococcus mutans NCTC 10449
[25] = system: Enterococcus faecalis NCTC 12697
[26] = system: Staphylococcus epidermidis RP62A/1
[27] = system: Klebsiella pneumoniae ATCC 700603
[28] = system: Staphylococcus aureus ATCC 29213
[29] = system: Escherichia coli ATCC 25726
[30] = system: Stenotrophomonas maltophilia
[31] = system: Candida albicans KCTC 7121
[32] = system: Staphylococcus aureus KCTC 1621
[33] = system: Trichosporon beigelii KCTC 7251
[34] = system: Aspergillus flavus KCTC 7375
[35] = system: Serratia marcescens KCTC 1299
[36] = system: Pseudomonas aeruginosa KCTC 1637
[37] = system: Bacillus subtilis KCTC 3068
[38] = system: Fusarium oxysporum KCTC 6084
[39] = system: Salmonella typhimurium KCTC 1926
[40] = system: Streptococcus pyogenes KCTC 3096
[41] = system: Escherichia coli KCTC 1682

Structure (SMILES): CC(C)C[C@@H]1NC(=O)[C@H](CCCCN)NC(=O)[C@H](CC(C)C)NC(=O)[C@@H]2CCCN2C(=O)CNC(=O)[C@H](CCCCN)NC(=O)[C@@H](NC(=O)[C@H](CCCCN)NC(=O)CNC(=O)[C@H](CCCCN)NC(=O)[C@H](CCCCN)NC(=O)[C@H](CCCCN)NC(=O)[C@H](C)N)CSSC[C@@H](C(N)=O)NC(=O)[C@H](CCCCN)NC(=O)[C@H](C)NC(=O)[C@H](C(C)C)NC1=O [AKKKGKCKGPLKLVAKC]
MIC [1]: ≥ 65 µM
MIC [2]: > 100 µM
MIC [3]: ≥ 100 µM
MIC [4]: ≥ 100 µM
MIC [5]: > 100 µM

Structure (SMILES): CSCC[C@H](NC(=O)[C@H](C)NC(C)=O)C(=O)N[C@H](C(=O)NCC(=O)N[C@H](C(=O)O)[C@@H](C)O)C(C)C [AMVGT]
MIC [6]: 26.3 µM (≈ 13.7 µg/mL)
MIC [7]: ≥ 53.8 µM
MIC [8]: 26.3 µM (≈ 13.7 µg/mL)
MIC [9]: 26.3 µM (≈ 13.7 µg/mL)
MIC [2]: 26.3 µM (≈ 13.7 µg/mL)

Structure (SMILES): CSCC[C@H](NC(=O)[C@@H](NC(=O)[C@H](CCCCN)NC(=O)[C@H](CO)NC(=O)[C@H](C)NC(=O)[C@H](CC(C)C)NC(=O)[C@H](CO)NC(=O)CNC(=O)[C@@H](NC(=O)[C@@H](NC(=O)[C@H](CC(N)=O)NC(=O)[C@H](CCCCN)NC(=O)[C@H](C)NC(=O)[C@H](C)NC(=O)CNC(=O)[C@H](CCCCN)NC(=O)[C@H](CC(C)C)NC(=O)[C@@H](NC(=O)[C@H](CC(=O)O)NC(=O)[C@H](CC(C)C)NC(=O)[C@H](CC(C)C)NC(=O)CN)[C@@H](C)O)C(C)C)C(C)C)C(C)C)C(=O)N[C@@H](CCC(=O)O)C(=O)N[C@@H](CCCCN)C(=O)N[C@@H](CC(C)C)C(N)=O [GLLDTLKGAAKNVVGSLASKVMEKL]
MIC [10]: 100 µM (≈ 254 µg/mL)
MIC [11]: ≥ 50 µM
MIC [12]: 25 µM (≈ 63.6 µg/mL)
MIC [13]: ≥ 200 µM
MIC [14]: ≥ 100 µM
MIC [15]: ≥ 200 µM
MIC [16]: ≥ 100 µM
MIC [17]: ≥ 200 µM
MIC [18]: 200 µM (≈ 508 µg/mL)

Structure (SMILES): CC[C@H](C)[C@H](NC(=O)[C@H](CC(=O)O)NC(=O)[C@H](CCCCN)NC(=O)[C@H](C)NC(=O)[C@H](C)NC(=O)CNC(=O)[C@H](CCCCN)NC(=O)[C@H](CC(C)C)NC(=O)[C@@H](NC(=O)[C@H](CC(=O)O)NC(=O)[C@@H](NC(=O)[C@@H](NC(=O)CN)C(C)C)C(C)C)[C@@H](C)CC)C(=O)N[C@@H](C)C(=O)NCC(=O)N[C@@H](Cc1cnc[nH]1)C(=O)N[C@@H](CC(C)C)C(=O)N[C@@H](C)C(=O)N[C@@H](CO)C(=O)N[C@@H](CCCCN)C(=O)N[C@H](C(=O)N[C@@H](CCSC)C(N)=O)C(C)C [GVVDILKGAAKDIAGHLASKVM]
MIC [12]: 114 µM (≈ 250 µg/mL)
MIC [19]: ≥ 222 µM
MIC [20]: ≥ 234 µM

The remaining lines, values ahead:

MIC [10]: > 441 µM
MIC [21]: > 441 µM
MIC [12]: > 441 µM
MIC [22]: ≥ 441 µM
MIC [23]: ≥ 441 µM
MIC [24]: ≥ 441 µM
MIC [25]: ≥ 441 µM
Structure (SMILES): CSCC[C@H](NC(=O)[C@H](CC(C)C)NC(=O)CNC(=O)[C@@H](NC(=O)[C@H](Cc1ccccc1)NC(=O)[C@H](CO)NC(=O)[C@H](CC(=O)O)NC(=O)[C@@H](NC(=O)[C@H](CCCCN)NC(=O)[C@@H](N)Cc1cnc[nH]1)[C@@H](C)O)C(C)C)C(N)=O [HKTDSFVGLM]

MIC [26]: 0.8 µM (≈ 2.46 µg/mL)
MIC [27]: 12.5 µM (≈ 38.5 µg/mL)
MIC [10]: 25 µM (≈ 76.9 µg/mL)
MIC [28]: 3.1 µM (≈ 9.54 µg/mL)
MIC [29]: 6.25 µM (≈ 19.2 µg/mL)
MIC [21]: 3.1 µM (≈ 9.54 µg/mL)
MIC [30]: 3.1 µM (≈ 9.54 µg/mL)
MIC [8]: 3.1 µM (≈ 9.54 µg/mL)
MIC [13]: ≥ 100 µM
MIC [16]: 1.6 µM (≈ 4.92 µg/mL)
MIC [17]: ≥ 50 µM
Structure (SMILES): CC[C@H](C)[C@H](N)C(=O)N[C@@H](CCCCN)C(=O)N[C@@H](CC(C)C)C(=O)N[C@@H](CO)C(=O)N1CCC[C@H]1C(=O)N[C@@H](CCC(=O)O)C(=O)N[C@H](C(=O)N[C@@H](CCCCN)C(=O)N[C@@H](CCCCN)C(=O)N[C@@H](CC(N)=O)C(=O)N[C@@H](CC(C)C)C(=O)N[C@@H](CCCCN)C(=O)N[C@@H](CCCCN)C(=O)N[C@H](C(=O)N[C@@H](CC(C)C)C(=O)N[C@@H](CCCCN)C(=O)NCC(=O)N[C@@H](C)C(=O)N[C@H](C(=O)N[C@@H](CCCCN)C(=O)NCC(=O)N[C@@H](C)C(=O)N[C@H](C(=O)N[C@@H](C)C(=O)N[C@H](C(=O)N[C@@H](C)C(=O)N[C@@H](CCCCN)C(=O)N[C@@H](CCSC)C(=O)N[C@H](C(N)=O)C(C)C)C(C)C)[C@@H](C)CC)[C@@H](C)CC)C(C)C)[C@@H](C)O [IKLSPETKKNLKKVLKGAIKGAIAVAKMV]

MIC [31]: 12.5 µM (≈ 28.7 µg/mL)
MIC [32]: 1.56 µM (≈ 3.59 µg/mL)
MIC [33]: 12.5 µM (≈ 28.7 µg/mL)
MIC [34]: 25 µM (≈ 57.5 µg/mL)
MIC [35]: 3.13 µM (≈ 7.2 µg/mL)
MIC [36]: 1.56 µM (≈ 3.59 µg/mL)
MIC [37]: 0.78 µM (≈ 1.79 µg/mL)
MIC [38]: 25 µM (≈ 57.5 µg/mL)
MIC [39]: 1.56 µM (≈ 3.59 µg/mL)
MIC [40]: 3.13 µM (≈ 7.2 µg/mL)
MIC [41]: 3.13 µM (≈ 7.2 µg/mL)
Structure (SMILES): CC[C@H](C)[C@H](NC(=O)[C@H](CCCCN)NC(=O)[C@H](CCCCN)NC(=O)[C@H](Cc1ccccc1)NC(=O)[C@H](CC(C)C)NC(=O)[C@H](CCCCN)NC(=O)[C@H](Cc1c[nH]c2ccccc12)NC(=O)[C@H](CCCCN)NC(=O)[C@@H]1CCCN1C(=O)[C@H](Cc1ccccc1)NC(=O)[C@H](CCCCN)NC(=O)[C@H](CCCCN)NC(=O)[C@H](C)NC(=O)[C@H](CC(C)C)NC(=O)[C@H](Cc1cnc[nH]1)NC(=O)[C@H](CC(C)C)NC(=O)[C@H](Cc1ccccc1)NC(=O)[C@@H](N)CCCCN)C(N)=O [KFLHLAKKFPKWKLFKKI]
